Data published in patent US8440671B2, “Compositions comprising a phoshodiesterase-5 inhibitor and their use in methods of treatment” (priority 2007, dated 2013).

Experiments:
[1] = system: subject with Alzheimer's Disease and dementia; settings: for clinical status changes: cholinesterase inhibitor alone
From the text: A fifth subject was diagnosed with Alzheimer's Disease and dementia and administered a combination of PI-5, SSRI and CI.

[2] = system: subject with atypical Parkinson's Disease, severe seborrheic dermatitis and scarring facial acne rosacea; format: in vivo
From the text: A third subject was diagnosed with atypical Parkinson's Disease with an initial presentation fifteen years earlier with cogwheel type diffuse tremor of low amplitude, diffuse muscular rigidity, mild bradykinesia, gait abnormalities.
Patient is a non-smoker and social drinker with minimal alcohol consumption and no history of drug abuse. Chronic problems of borderline hypertension (treated with diet and HYTRIN® (terazoin)), benign prostatic hypertrophy (treated with HYTRIN® (terazoin) and voding training), GERD treated intermittently as needed with PRILOSEC® (omeprazole) plus PEPCID® (famotidine) for short periods, DJD of cervical and lumbar spine treated intermittently with physical therapy, TYLENOL® (acetaminophen), occasional VICODIN® (acetaminophen/hydrocodone) as needed.

[3] = system: subject with Parkinson's Disease; experiment: Example 4: case report, subject with Parkinson's Disease given PI-5, SSRI and DI
From the text: A fourth subject was diagnosed with Parkinson's Disease and administered a combination of PI-5, SSRI and DI.

[4] = system: subject with rapidly progressive multi-system neurodegenerative disease, facial acne, vitiligo, gingival infections; format: in vivo; settings: for clinical response to neurological disease, skin and mucous membrane disorders: each drug given individually; for substitution within the oral combination: Viagra 50 mg TID for oral Cialis, Paxil 20 mg TID for Luvox
From the text: A second subject was diagnosed with nonspecific but rapidly progressive multi-system neurodegenerative disease. […] Initial presentation was with abrupt onset dementia with rapid progression over 3-4 months. Severe, generalized myoclonus of high amplitude with ataxia, dyspahagia, central and peripheral respiratory distress (requiring CPAP), dizziness, and hypokinetic rigidity followed some one month later and have continued to progress as well as dementia.
Mild intermittent gingival infections requiring minimal surgical intervention with retraction from tooth line for over ten years.
Patient was a non-smoker with no alcohol or other drug consumption. Patient suffered from coexisting prior problem of chronic atrial fibrillation, currently rate controlled with exercise alone and anticoagulation intermittently with Coumadin.
The twenty four hour doses, put into 7.5 cc of water solution, was also applied topically to scar noted previously. […] Patient also takes Folic acid—1 mg per day, and Vitamin B6.

COc1cc2c(cc1OC)C(=O)C(CC1CCN(Cc3ccccc3)CC1)C2 (centres unmarked) [ARICEPT® (donepezil), donepezil]
clinical status changes [1]: without significant clinical status changes | substitution for COGNEX within the combination ([1]; two week period, without noticeable changes): successfully substituted

NC12CC3CC(CC(C3)C1)C2 [Amantadine, amantadine]
change in seborrheic dermatitis or acne rosacea ([2]; chronic low-dose treatment): No change | improvement of all symptoms ([2]; chronic low-dose treatment): little or no improvement

CN1CCc2cccc3c2[C@H]1Cc1ccc(O)c(O)c1-3 [Apomorphine, apomorphine]
paradoxical response to IV Apomorphine ([2]; IV, part of work-up): decreased blood pressure and worsening of rigidity and tremor

CC(C)C[C@H]1C(=O)N2CCC[C@H]2[C@]2(O)O[C@](NC(=O)[C@@H]3C=C4c5cccc6[nH]c(Br)c(c56)C[C@H]4N(C)C3)(C(C)C)C(=O)N12 [Bromocriptine, bromocriptine]
change on short periods of treatment ([3]; short periods later in disease): without significant change

Nc1c2c(nc3ccccc13)CCCC2 [COGNEX® (tacrine), tacrine]
clinical response to neurological disease, skin and mucous membrane disorders [4]: without any clinical response | effect on all symptoms when added to the regimen ([3]; added to Luvox, Cialis, Sinemet regimen): mild improvements | tolerability when added to the regimen ([3]; human, in vivo): discontinued secondary to gastrointestinal upset | clinical status changes [1]: without significant clinical status changes

COCCCC/C(=N\OCCN)c1ccc(C(F)(F)F)cc1 [LUVOX® (fluvoxamine), fluvoxamine]
clinical response to neurological disease, skin and mucous membrane disorders [4]: without any clinical response

Fc1ccc([C@@H]2CCNC[C@H]2COc2ccc3c(c2)OCO3)cc1 [Paxil, paroxetine]
substitution within the oral combination [4]: equivalently substituted

CCCc1nn(C)c2c(=O)[nH]c(-c3cc(S(=O)(=O)N4CCN(C)CC4)ccc3OCC)nc12 [VIAGRA® (sildenafil), sildenafil]
substitution within the oral combination [4]: equivalently substituted | clinical response to neurological disease, skin and mucous membrane disorders [4]: without any clinical response
